From patent US10149839B2, “Chemical compounds” (AstraZeneca AB, priority 2016, dated 2018)
pIC50: −log10 of the molar value. In brackets after ≈: the same amount, converted by molar mass.

Legend:
[1] = Human plasma protein binding (equilibrium dialysis); assay type: in vitro ADME; conditions: dialysis 18 hours
[2] = Thermodynamic solubility (shake flask); assay type: physicochemical; conditions: aqueous phosphate buffer pH 7.4, 24 hours
[3] = physchem; conditions: 1-octanol/aqueous buffer, pH 7.4
[4] = target: Estrogen Receptor (ERα) in MCF-7 cells (Homo sapiens (Human), UniProt P03372); experiment: MCF-7 ER down-regulation assay (immuno-fluorescence); assay type: cell-based; conditions: for pIC50: 18-22 hours incubation; for % downregulation: shown in brackets where not >90%
Estrogen Receptor (ERα) in MCF-7 cells, sequence (P03372 whole entry): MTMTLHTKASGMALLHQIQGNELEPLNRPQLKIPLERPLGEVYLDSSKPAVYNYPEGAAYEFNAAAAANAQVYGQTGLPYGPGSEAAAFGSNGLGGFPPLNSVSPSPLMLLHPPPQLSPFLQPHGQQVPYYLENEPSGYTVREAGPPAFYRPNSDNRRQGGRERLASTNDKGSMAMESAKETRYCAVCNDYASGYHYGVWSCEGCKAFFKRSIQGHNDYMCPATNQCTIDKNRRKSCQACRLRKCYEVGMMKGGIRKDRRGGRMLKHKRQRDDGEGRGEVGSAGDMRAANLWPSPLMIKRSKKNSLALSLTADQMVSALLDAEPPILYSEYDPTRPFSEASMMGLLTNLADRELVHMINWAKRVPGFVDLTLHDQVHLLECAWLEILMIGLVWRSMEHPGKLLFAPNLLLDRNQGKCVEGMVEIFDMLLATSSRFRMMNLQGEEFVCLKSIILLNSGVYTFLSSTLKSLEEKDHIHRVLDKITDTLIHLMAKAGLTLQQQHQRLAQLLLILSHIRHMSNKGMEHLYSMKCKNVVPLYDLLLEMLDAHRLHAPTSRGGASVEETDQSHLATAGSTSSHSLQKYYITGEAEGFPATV

[5] = aqueous phosphate buffer, 25 °C, pH 7.4, aqueous buffer, thermodynamic from solid

SMILES	Human plasma protein binding (% free) [1]	solubility at 24 h [2, 5]	logD [3]	pIC50 [4]	% downregulation [4]	solubility at 24 h ([2]; 25° C.)
C[C@@H]1Cc2c([nH]c3ccccc23)[C@@H](c2ccc(OCCNCCCF)cc2)N1CC(F)CF (single isomer, unassigned) [Example 25]	1.6 % free	–	3	9.44	–	135 µM (≈ 62 µg/mL)
C[C@@H]1Cc2c([nH]c3ccccc23)[C@@H](c2ccc(OCCNCCCF)cc2F)N1CC1(F)CC1 [Example 21, 3-fluoro-N-(2-(3-fluoro-4-((1R,3R)-2-((1-fluorocyclopropyl)methyl)-3-methyl-2,3,4,9-tetrahydro-1H-pyrido[3,4-b]indol-1-yl)phenoxy)ethyl)propan-1-amine]	2.1 % free	149 µM (≈ 70.3 µg/mL)	3.4	9.32	–	–
C[C@@H]1Cc2c([nH]c3ccccc23)[C@@H](c2ccc(OCCNCCCF)cc2F)N1CC1(F)COC1 [Example 22, 3-fluoro-N-(2-(3-fluoro-4-((1R,3R)-2-((3-fluorooxetan-3-yl)methyl)-3-methyl-2,3,4,9-tetrahydro-1H-pyrido[3,4-b]indol-1-yl)phenoxy)ethyl)propan-1-amine]	6.1 % free	197 µM (≈ 96.1 µg/mL)	3	–	–	–
C[C@@H]1Cc2c([nH]c3ccccc23)[C@@H](c2ccc(OCCNCCCF)cc2)N1CC1(F)CC1 [Example 23, 3-fluoro-N-(2-(4-((1R,3R)-2-((1-fluorocyclopropyl)methyl)-3-methyl-2,3,4,9-tetrahydro-1H-pyrido[3,4-b]indol-1-yl)phenoxy)ethyl)propan-1-amine]	1.7 % free	122 µM (≈ 55.3 µg/mL)	3.3	–	–	–
C[C@@H]1Cc2c([nH]c3ccccc23)[C@@H](c2ccc(OCCNCCCF)cc2)N1CC1(F)COC1 [Example 24, 3-fluoro-N-(2-(4-((1R,3R)-2-((3-fluorooxetan-3-yl)methyl)-3-methyl-2,3,4,9-tetrahydro-1H-pyrido[3,4-b]indol-1-yl)phenoxy)ethyl)propan-1-amine]	–	370 µM (≈ 174 µg/mL)	–	–	–	–
C[C@@H]1Cc2c([nH]c3ccccc23)[C@@H](c2ccc(OC[C@H](C)NCCCF)cc2)N1CC1(F)COC1 [Example 27, 3-fluoro-N-((S)-1-(4-((1R,3R)-2-((3-fluorooxetan-3-yl)methyl)-3-methyl-2,3,4,9-tetrahydro-1H-pyrido[3,4-b]indol-1-yl)phenoxy)propan-2-yl)propan-1-amine]	5.2 % free	281 µM (≈ 136 µg/mL)	3	8.82	(79%)	–
C[C@@H]1Cc2c([nH]c3ccccc23)[C@@H](c2ccc(OCCNCCCF)cc2C#N)N1CC1(F)CC1 [Example 29, 2-((1R,3R)-2-((1-fluorocyclopropyl)methyl)-3-methyl-2,3,4,9-tetrahydro-1H-pyrido[3,4-b]indol-1-yl)-5-(2-((3-fluoropropyl)amino)ethoxy)benzonitrile]	–	–	–	7.72	(57%)	–
COc1cc(OCCNCCCF)ccc1[C@@H]1c2[nH]c3ccccc3c2C[C@@H](C)N1CC(F)F [Example 43, N-(2-(4-((1R,3R)-2-(2,2-Difluoroethyl)-3-methyl-2,3,4,9-tetrahydro-1H-pyrido[3,4-b]indol-1-yl)-3-methoxyphenoxy)ethyl)-3-fluoropropan-1-amine]	–	163 µM (≈ 77.5 µg/mL)	–	–	–	–
COc1cc(OCCNCCCF)ccc1[C@@H]1c2[nH]c3ccccc3c2C[C@@H](C)N1CC(F)(F)CO [Example 58, 2,2-difluoro-3-((1R,3R)-1-(4-(2-((3-fluoropropyl)amino)ethoxy)-2-methoxyphenyl)-3-methyl-1,3,4,9-tetrahydro-2H-pyrido[3,4-b]indol-2-yl)propan-1-ol]	–	418 µM (≈ 211 µg/mL)	–	–	–	–
COc1cc(NCCNCCCF)ncc1[C@@H]1c2[nH]c3ccccc3c2C[C@@H](C)N1CC(F)(F)CO [Example 65, 2,2-difluoro-3-((1R,3R)-1-(6-((2-((3-fluoropropyl)amino)ethyl)amino)-4-methoxypyridin-3-yl)-3-methyl-1,3,4,9-tetrahydro-2H-pyrido[3,4-b]indol-2-yl)propan-1-ol]	14 % free	911 µM (≈ 461 µg/mL)	2.1	–	–	–
COc1cc(NCCNCCCF)ncc1[C@@H]1c2[nH]c3ccccc3c2C[C@@H](C)N1CC(F)F [Example 67, N1-(5-((1R,3R)-2-(2,2-difluoroethyl)-3-methyl-2,3,4,9-tetrahydro-1H-pyrido[3,4-b]indol-1-yl)-4-methoxypyridin-2-yl)-N2-(3-fluoropropyl)ethane-1,2-diamine]	–	> 1000 µM	2.5	9.06	–	–
COc1cc(NCCNCCCF)ncc1[C@@H]1c2[nH]c3ccccc3c2C[C@@H](C)N1CC(C)(F)F [Example 68, N1-(5-((1R,3R)-2-(2,2-difluoropropyl)-3-methyl-2,3,4,9-tetrahydro-1H-pyrido[3,4-b]indol-1-yl)-4-methoxypyridin-2-yl)-N2-(3-fluoropropyl)ethane-1,2-diamine]	–	438 µM (≈ 214 µg/mL)	3.1	9.48	–	–
COc1nc(NCCNCCCF)ccc1[C@@H]1c2[nH]c3ccccc3c2C[C@@H](C)N1CC(F)F [Example 76, N1-(5-((1R,3R)-2-(2,2-difluoroethyl)-3-methyl-2,3,4,9-tetrahydro-1H-pyrido[3,4-b]indol-1-yl)-6-methoxypyridin-2-yl)-N2-(3-fluoropropyl)ethane-1,2-diamine]	–	335 µM (≈ 159 µg/mL)	3	9.49	–	–

Now from value to compound:

Human plasma protein binding (% free) [1]	solubility at 24 h [2, 5]	logD [3]	pIC50 [4]	% downregulation [4]	solubility at 24 h ([2]; 25° C.)	SMILES
1.5 % free	83 µM (≈ 41.1 µg/mL)	3.4	–	–	–	C[C@@H]1Cc2c([nH]c3ccccc23)[C@@H](c2c(F)cc(OCCNCCCF)cc2F)N1C[C@H](F)CF (single isomer, unassigned) [Example 15]
3.9 % free	629 µM (≈ 319 µg/mL)	2.6	10.07	(85%)	–	C[C@@H]1Cc2c([nH]c3ccccc23)[C@@H](c2c(F)cc(OCCNCCCF)cc2F)N1CC(C)(F)CO (single isomer, unassigned) [Example 17]
0.61 % free	12 µM (≈ 5.95 µg/mL)	4.1	–	–	–	C[C@@H]1Cc2c([nH]c3ccccc23)[C@@H](c2c(F)cc(OCCNCCCF)cc2F)N1CC(C)(F)F [Example 12, N-(2-(4-((1R,3R)-2-(2,2-difluoropropyl)-3-methyl-2,3,4,9-tetrahydro-1H-pyrido[3,4-b]indol-1-yl)-3,5-difluorophenoxy)ethyl)-3-fluoropropan-1-amine]
1.6 % free	150 µM (≈ 72.2 µg/mL)	3.4	–	–	–	C[C@@H]1Cc2c([nH]c3ccccc23)[C@@H](c2c(F)cc(OCCNCCCF)cc2F)N1CC(F)F [Example 13, N-(2-(4-((1R,3R)-2-(2,2-difluoroethyl)-3-methyl-2,3,4,9-tetrahydro-1H-pyrido[3,4-b]indol-1-yl)-3,5-difluorophenoxy)ethyl)-3-fluoropropan-1-amine]
0.56 % free	11 µM (≈ 5.56 µg/mL)	> 4.4	9.39	(68%)	–	CC(CNCCCF)Oc1cc(F)c([C@@H]2c3[nH]c4ccccc4c3C[C@@H](C)N2CC(C)(C)F)c(F)c1 (stereo partly drawn) [Example 19, 2-(3,5-difluoro-4-((1R,3R)-2-(2-fluoro-2-methylpropyl)-3-methyl-2,3,4,9-tetrahydro-1H-pyrido[3,4-b]indol-1-yl)phenoxy)-N-(3-fluoropropyl)propan-1-amine]
<0.30 % free	18 µM (≈ 9.39 µg/mL)	> 3.9	9.59	–	–	C[C@@H]1Cc2c([nH]c3ccccc23)[C@@H](c2c(F)cc(OCC(CO)NCCCF)cc2F)N1CC(C)(C)F (stereo partly drawn) [Example 20, 3-(3,5-difluoro-4-((1R,3R)-2-(2-fluoro-2-methylpropyl)-3-methyl-2,3,4,9-tetrahydro-1H-pyrido[3,4-b]indol-1-yl)phenoxy)-2-((3-fluoropropyl)amino)propan-1-ol]
0.61 % free	47 µM (≈ 24.5 µg/mL)	3.9	–	–	–	COCC(C)(F)CN1[C@H](c2c(F)cc(OCCNCCCF)cc2F)c2[nH]c3ccccc3c2C[C@H]1C (stereo partly drawn) [Example 50, N-(2-(3,5-difluoro-4-((1R,3R)-2-(2-fluoro-3-methoxy-2-methylpropyl)-3-methyl-2,3,4,9-tetrahydro-1H-pyrido[3,4-b]indol-1-yl)phenoxy)ethyl)-3-fluoropropan-1-amine]
–	32 µM (≈ 15.3 µg/mL)	4.1	9.70	(89%)	–	C[C@@H]1Cc2c([nH]c3ccccc23)[C@@H](c2ccc(OCCNCCCF)cc2F)N1CC(C)(F)F [Example 55, N-(2-(4-((1R,3R)-2-(2,2-difluoropropyl)-3-methyl-2,3,4,9-tetrahydro-1H-pyrido[3,4-b]indol-1-yl)-3-fluorophenoxy)ethyl)-3-fluoropropan-1-amine]
–	96 µM (≈ 49.9 µg/mL)	3.4	–	–	–	C[C@@H]1Cc2c([nH]c3ccccc23)[C@@H](c2c(F)cc(OCCNCCCF)cc2F)N1CC1(CF)COC1 [Example 72, N-(2-(3,5-difluoro-4-((1R,3R)-2-((3-(fluoromethyl)oxetan-3-yl)methyl)-3-methyl-2,3,4,9-tetrahydro-1H-pyrido[3,4-b]indol-1-yl)phenoxy)ethyl)-3-fluoropropan-1-amine]
–	192 µM (≈ 94 µg/mL)	4	9.68	–	–	COc1nc(NCCNCCCF)ccc1[C@@H]1c2[nH]c3ccccc3c2C[C@@H](C)N1CC(C)(F)F [Example 78, N1-(5-((1R,3R)-2-(2,2-difluoropropyl)-3-methyl-2,3,4,9-tetrahydro-1H-pyrido[3,4-b]indol-1-yl)-6-methoxypyridin-2-yl)-N2-(3-fluoropropyl)ethane-1,2-diamine]
